Here are results for five compounds from patent US8536140B2, “Methods for treating inflammatory bowel disease” (MTI Meta Tech Inc., priority 2004, dated 2013).

The test system of one data set is rat intestine. The settings on record: dietary, rat intestine in vivo; cited from earlier work.
Data set [1] relates to CaCo-2 cells. Put plainly: Apical and basolateral GD3 uptake, retention, transfer and metabolism in CaCo-2 cell monolayers on trans-well plates. The data set is classed as in vitro ADME, human. As for the experimental part: Polarized, differentiated monolayers of CaCo-2 cells grown on trans-well plates were used as a model to study apical and basolateral GD3 uptake. CaCo-2 cells were seeded at a density of 2.5×10^7 cells/ml on 0.4 μm pore inserts in 24 well trans-well plates (Corning Inc., Acton, Mass.). The apical (upper) and basolateral (lower) compartments contained 100 μl and 600 μl of EMEM-10, respectively. CaCo-2 cells were grown to confluence and were differentiated twenty days prior to delivering gangliosides. After 20 days, CaCo-2 cells were differentiated and polarized with intact tight junctions, as confirmed by alkaline phosphatase activity and trans-epithelial resistance measurements (data not shown). On day 21, CaCo-2 cells were transferred into Hank's MEM-4, a low serum, low calcium medium containing no antibiotics to limit serum and calcium interference with ganglioside uptake and antibiotic effects on tight junction permeability. Serum present in the media aided in GD3 solubilization and micelle formation during sonication. CaCo-2 cells were incubated under standard conditions in the absence (control, MEM-4 alone) or presence of purified ganglioside GD3 in MEM-4 for 6, 24 and 48 h at a concentration of 5 or 10 μg/ml. The time frame for exposing human intestine CaCo-2 cells to ganglioside GD3 was chosen to be 6-48 h as previous work on ganglioside GM1 uptake by cultured cells predicts slow and incomplete ganglioside absorption from the apical side. […] The ganglioside treated cells received GD3 on either the BBM (apical) side or the BLM side of CaCo-2 cell monolayers. GD3 delivery on the apical and BLM side of CaCo-2 cells was used as an in vitro model for enteral and intravenous nutrient delivery, respectively. After GD3 incubation, apical and BLM supernatants were collected and cells were washed with PBS and Tris buffer containing EDTA. CaCo-2 cells from each trans-well insert were trypsinized, pooled together in Tris-mannitol buffer and sonicated to form cell lysates. Cell lysates were saved for protein and ganglioside analysis.
Total and individual gangliosides were measured with a colorimetric sialic acid assay as ganglioside bound N-acetyl neuraminic acid (GG-NANA). An aliquot of purified ganglioside sample was dried under N2 gas and dissolved with 0.5 ml of ddH20 and 0.5 ml of resorcinol-HCl in screw-capped Teflon-lined tubes. The purple-blue color developed by reacting resorcinol reagent with ganglioside sialic acid at 160° C. for 8 min was extracted into butylacetate/butanol (85:15, v/v) solvent. Optical density was read by a spectrophotometer at 580 nm. For quantitative analysis, N-acetyl neuraminic acid (also known as sialic acid) was used as a standard.
The following equations were used to calculate the percentage and amount of ganglioside GD3 taken up, retained, transferred and metabolized by human intestinal CaCo-2 cells following brush border membrane or basolateral membrane GD3 delivery. For all calculations the values obtained from the control were subtracted off the test groups to correct for small levels of ganglioside present in the serum and cells. In Equation 1, the % uptake=[(amount delivered-amount remaining)*100%] divided by the amount delivered. In Equation 2, the % retention=[amount cell*100%] divided by the amount uptake. In Equation 3, the % transfer=[amount receiving compartment*100%] is divided by the amount uptake. In Equation 4, the % metabolism=[amount uptake−amount retained−amount transferred*100%] divided by the amount uptake.
Sample size determination for a one tailed comparison at 80% power to detect a 4-5 fold increase in GM1 levels in skin fibroblasts (0.2 nmol/mg protein to 0.9 nmol/mg protein, P<0.05) requires a sample size of 3. All data are expressed as the mean±the standard error of the mean for a sample size of n=4 (4 different cell passages) for intestine cell sensitivity experiments and n=3-4 (3-4 different cell passages) for ganglioside GD3 absorption experiments. […]

In data set [2] the test system is CaCo-2 cells. Nature of the data set: Lactate dehydrogenase (LDH) release cytotoxicity assay. In kind it is cell-based, human. As for the experimental part: The human colon cancer cell line, CaCo-2, was obtained from American Type Culture Collection (Manassas, Va.) and was grown (passage 50-65) under standard incubator conditions (humidified atmosphere, 5% CO2, 37° C.) as adherent monolayer cultures in T-flasks containing Earle's minimum essential medium (EMEM). The cell culture growth medium (pH 7.2) was supplemented with 10% (v/v) fetal bovine serum, 1% (v/v) antibiotic/antimycotic, 26 mM sodium bicarbonate, 10 mM HEPES and 1 mM pyruvic acid. Media was changed every 2-3 days and cell density and viability was assessed with a hemocytometer using the trypan blue dye exclusion method.
Human intestine CaCo-2 cells were seeded at a density of 400,000 cells/ml on a 24 well plate. At confluence, cells were switched into EMEM-4 (4% FBS) and treated with a range of GD3 concentrations (0-64 μg/ml) similar or higher than the amount in human milk on the apical side for 24 h under standard incubator conditions. […] In brief, cell lysates and supernatants were incubated with an enzyme/substrate solution for 30 min at room temperature and the absorbance of colored formazan product was measured at 490 nm with a microtiter plate reader (Molecular Devices, Sunnyvale, Calif.). Absorbance background reading under kit conditions was less than 0.075. Data were expressed as percentage LDH release from cells. […]

Data set [3] in a line: Distribution of ganglioside to the intestine (discussion).
A further data set deals with Giardia cells. The conditions noted are these: after 2 h, cited from earlier work.

Turning to `CC(C)CCC[C@@H](C)[C@H]1CC[C@H]2[C@@H]3CC=C4C[C@@H](O)CC[C@]4(C)[C@H]3CC[C@]12C` [cholesterol], the Apical uptake efficiency in the data set with rat intestine is recorded as 50%.

For II^3 (NeuAc)2-LacCer [GD3], the “Apical GD3 uptake efficiency, maximum” value with CaCo-2 cells [1] (10 μg/ml apical, after 24 h) stood at 73%. The “GD3 uptake, basolateral compared to apical delivery” value in the data set on CaCo-2 cells [1] (10 μg/ml, 6, 24 and 48 h) was “faster and more efficient”. In addition, the “Time course of GD3 uptake” value in the data set on CaCo-2 cells [1] (10 μg/ml, 6, 24 and 48 h at 37° C.) was “rapid and linear for the first 6 h”. Moreover, in the data set with CaCo-2 cells [1] (5 or 10 μg/ml, 6 h at 37° C.), the “Amount of GD3 taken up from the basolateral membrane side when concentration doubled” value is listed as “twice as high”. Moreover, the “Percent of GD3 taken up that was metabolized” value in the data set on CaCo-2 cells [1] (after 6 h apical exposure, 10 μg/ml) is 96%. Besides, in the data set on CaCo-2 cells [1] (after 24 h apical exposure), the “Drop of the percentage GD3 metabolized” value came out at 32%. In addition, the GD3 incorporated with CaCo-2 cells [1] (apical delivery of 24 μg, after 24 h) turned out to be 18.5 µg. The “Fate of basolateral membrane GD3 uptake” value in the data set with CaCo-2 cells [1] (following 24 h exposure, 10 μg/ml) is listed as “completely metabolized”. Moreover, the “LDH release from cells” value in the data set on CaCo-2 cells [2] (64 μg/ml, 24 h) is “significant release of LDH”. Moreover, the “Concentration at which toxicity to enterocytes begins” value in the data set with CaCo-2 cells [2] (after 24 h exposure) was “greater than 32 μg/ml”.

As to II^3 NeuAc-GgOse4Cer [GM1], the “Fraction that could have been distributed to the intestine” value in data set [3] is given as “at most 6%”. Also, the Ganglioside incorporated in the data set on Giardia cells is 2.4 µg. In addition, the Maximal uptake efficiency in the data set on Giardia cells (same amount of ganglioside) is given as 10%.

As for II^3 NeuAc-LacCer [GM3], in data set [3], the “Fraction that could have been distributed to the intestine” value is listed as no more than 47.4%.

On to sphingomyelin, for which the Apical uptake efficiency in the data set on rat intestine is listed as 22-43%.
